Data published in PubChem BioAssay AID330 (DTP/NCI, 2004).
Where “and” joins values, the source holds several entries; their conditions need not be identical. Identical values can stand only once. Inconclusive results and toxic doses are left out.

Test system: P388 leukemia ip, CD2F1 mice, survival T/C
Test: NCI In Vivo Anticancer Drug Screen. Data for tumor model P388 Leukemia (intraperitoneal) in CD2F1 (CDF1) mice
Conditions: endpoint: median survival time, higher = longer survival
Summary of the method: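 Mice carrying the transplanted tumor received test compound or vehicle. Survival was recorded in each group, and the value is the treated-group measurement divided by that of the vehicle-treated control group.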

[1] = dose: 60.0 mg/kg/injection, schedule: Q01DX005 (ip), vehicle: Klucel (hydroxypropylcellulose) (HPC)
[2] = dose: 120.0 mg/kg/injection, schedule: Q01DX005 (ip), vehicle: Klucel (hydroxypropylcellulose) (HPC)
[3] = dose: 240.0 mg/kg/injection, schedule: Q01DX005 (ip), vehicle: Klucel (hydroxypropylcellulose) (HPC)
[4] = dose: 50.0 mg/kg/injection, schedule: Q01DX009 (ip), vehicle: saline with Tween-80
[5] = dose: 100.0 mg/kg/injection, schedule: Q01DX009 (ip), vehicle: saline with Tween-80
[6] = dose: 200.0 mg/kg/injection, schedule: Q01DX009 (ip), vehicle: saline with Tween-80

In the case of `COC(=O)C(N)CCCCNc1ccc2c(cc1=O)C(NC(C)=O)CCc1cc(OC)c(OC)c(OC)c1-2` (configuration not stated), the T/C (dose: 25.0 mg/kg/injection, schedule: Q01DX009 (ip), vehicle: saline with Tween-80) is reported as 119 % of control, the T/C (dose: 53.0 mg/kg/injection, schedule: Q01DX009 (ip), vehicle: saline) is reported as 117 % of control and the T/C (dose: 80.0 mg/kg/injection, schedule: Q01DX009 (ip), vehicle: saline) is reported as 117 % of control. The T/C (dose: 270.0 mg/kg/injection, schedule: Q01DX009 (ip), vehicle: saline) was 150 % of control.
`CN=C(c1ccc(NC(=O)c2ccc(C(=O)Nc3ccc(C(=NC)N(C)C)cc3)c(Cl)c2)cc1)N(C)C` was tested, and the T/C (dose: 0.75 mg/kg/injection, schedule: Q01DX005 (ip), vehicle: saline) was 95 % of control, the T/C (dose: 1.5 mg/kg/injection, schedule: Q01DX005 (ip), vehicle: saline) was 96 % of control and the T/C (dose: 3.0 mg/kg/injection, schedule: Q01DX005 (ip), vehicle: saline) was 92 % of control. The T/C (dose: 3.12 mg/kg/injection, schedule: Q01DX005 (ip), vehicle: saline) was 100 % of control.
For `CCOC(=O)COc1ccc2c(C)cc(=O)oc2c1[N+](=O)[O-]`, the T/C (dose: 60.0 mg/kg/injection, schedule: Q01DX005 (ip), vehicle: saline with Tween-80) was 102 % of control, the T/C (dose: 120.0 mg/kg/injection, schedule: Q01DX005 (ip), vehicle: saline with Tween-80) was 99 % of control and the T/C (dose: 240.0 mg/kg/injection, schedule: Q01DX005 (ip), vehicle: saline with Tween-80) was 98 % of control.
With `O=C(O)[C@@H]1[C@H](C(=O)O)[C@H](C(=O)O)C[C@@H]1C(=O)O` the T/C (dose: 100.0 mg/kg/injection, schedule: Q01DX009 (ip), vehicle: saline) was 108 % of control and the T/C (dose: 200.0 mg/kg/injection, schedule: Q01DX009 (ip), vehicle: saline) was 105 % of control.
In the case of `CCOc1nc(N)nc(C)c1N=Nc1cccc([N+](=O)[O-])c1`, the T/C [1] is reported as 100 % of control, the T/C [2] is reported as 94 % of control and the T/C [3] is reported as 103 % of control.
In the case of `CCO/C=N\c1c(NC(N)=O)cnn1Cc1ccccc1`, the T/C (dose: 100.0 mg/kg/injection, schedule: Q01DX001 (ip), vehicle: saline with Tween-80) is reported as 96 % of control, the T/C (dose: 200.0 mg/kg/injection, schedule: Q01DX001 (ip), vehicle: saline with Tween-80) is reported as 93 % of control and the T/C (dose: 400.0 mg/kg/injection, schedule: Q01DX001 (ip), vehicle: saline with Tween-80) is reported as 98 % of control.
`Cc1cc[c]([Sb]2([c]3ccc(C)cc3)([c]3ccc(C)cc3)[NH]c3cc(C(c4ccccc4)(c4ccccc4)c4ccccc4)cc(C(C)(C)C)c3[O]2)cc1` was tested, and the T/C [4] was 94 % of control, the T/C [5] was 92 % of control and the T/C [6] was 99 % of control.
For `CSCCC(C(=O)O)N1C(=O)C=CC1=O` (configuration not stated), the T/C (dose: 11.25 mg/kg/injection, schedule: Q01DX009 (ip), vehicle: saline with Tween-80) was 97 % of control, the T/C (dose: 22.5 mg/kg/injection, schedule: Q01DX009 (ip), vehicle: saline with Tween-80) was 97 % of control and the T/C (dose: 45.0 mg/kg/injection, schedule: Q01DX009 (ip), vehicle: saline with Tween-80) was 100 % of control and 88 % of control.
In the case of `CC(C)(C)N1CCC1C(=O)O` (configuration not stated), the T/C [4] is reported as 92 % of control, the T/C [5] is reported as 94 % of control and the T/C [6] is reported as 88 % of control. For the same compound, the T/C (dose: 400.0 mg/kg/injection, schedule: Q01DX009 (ip), vehicle: saline with Tween-80) was 87 % of control.
For `COC(=O)CCC1=C(C)c2cc3cc(C)c(cc4cc(C)c(cc5nc(cc1n2)C(CCC(=O)OC)=C5C)[nH]4)[nH]3`, the T/C (dose: 0.75 mg/kg/injection, schedule: Q01DX005 (ip), vehicle: saline with Tween-80) was 96 % of control, the T/C (dose: 1.5 mg/kg/injection, schedule: Q01DX005 (ip), vehicle: saline with Tween-80) was 98 % of control and the T/C (dose: 3.0 mg/kg/injection, schedule: Q01DX005 (ip), vehicle: saline with Tween-80) was 91 % of control. The T/C (dose: 3.12 mg/kg/injection, schedule: Q01DX005 (ip), vehicle: saline with Tween-80) was 90 % of control.
With `[N-]=[N+]=Nc1nnc(-c2ccccc2)c(=O)[nH]1` the T/C (dose: 100.0 mg/kg/injection, schedule: Q04DX002 (ip), vehicle: saline) was 101 % of control, the T/C (dose: 200.0 mg/kg/injection, schedule: Q04DX002 (ip), vehicle: saline) was 101 % of control and the T/C (dose: 400.0 mg/kg/injection, schedule: Q04DX002 (ip), vehicle: saline) was 96 % of control.
For `COc1cc2c(cc1C(C)c1cc(OC)c(OC)c(OC)c1)OCO2` (configuration not stated), the T/C (dose: 50.0 mg/kg/injection, schedule: Q01DX005 (ip), vehicle: Klucel (hydroxypropylcellulose) (HPC)) was 99 % of control, the T/C (dose: 100.0 mg/kg/injection, schedule: Q01DX005 (ip), vehicle: Klucel (hydroxypropylcellulose) (HPC)) was 97 % of control and the T/C (dose: 200.0 mg/kg/injection, schedule: Q01DX005 (ip), vehicle: Klucel (hydroxypropylcellulose) (HPC)) was 91 % of control.
In the case of `C=C(C)C(=O)OC1CCCC2C(=C)C(=O)OC12` (configuration not stated), the T/C [1] is reported as 105 % of control, the T/C [2] is reported as 100 % of control and the T/C [3] is reported as 107 % of control.
